The values that follow come from US11116726B2, “Echinomycin formulation, method of making and method of use thereof” (CHILDREN'S RESEARCH INSTITUTE, CHILDREN'S NATIONAL MEDICAL …, priority 2015, dated 2021).

The structures appear in SMILES notation.

Data set [1] is described as follows: Echinomycin concentration in SUM 159 breast tumor tissue after single i.v. injection. Format: in vivo, NSG mice. Conditions: 0.1 mg/kg single i.v., SUM 159 tumor. As to the method: FIG. 6. Accumulation of Echinomycin in tumor. Concentration of echinomycin in breast tumor SUM 159 following single dose i.v. injection (0.1 mg/kg) of liposomal and conventionally formulated echinomycin. n=3/time-point.
In contrast, administration of liposomal echinomycin (Lipo-EM) at the same dose of 0.1 mg/kg achieved a tissue concentration >5 ng/g, which was prolonged for more than 10 hrs following administration (FIG. 6). More importantly, peak drug levels in the liposomal echinomycin-treated group were approximately 6-fold higher than those treated with free echinomycin.

Data set [2] concerns SUM159 breast cancer cells. As to the kind of experiment: SUM159 breast cancer xenograft efficacy. The class given is in vivo, NSG mice. Conditions: 0.1 mg/kg i.v. once every 3 days, 6 doses. How it is done:
FIG. 11. Therapeutic effect of liposomal echinomycin on breast cancer in vivo. (Panel A) Female NSG mice were xenografted with human SUM159 breast cancer cells and treated with free echinomycin or vehicle (n=10 per group). Mice received 0.1 mg/kg of free echinomycin or vehicle via i.v. injection once every 3 days starting on day 28 for a total of 6 doses. Growth kinetics of SUM159 are shown. (Panel B) Female NSG mice were xenografted with SUM159 breast cancer cells and treated with liposomal echinomycin or vehicle (n=5 per group). The growth kinetics of SUM159 in recipient mice treated with vehicle and liposomal echinomycin are shown. Mice received 0.35 mg/kg of liposomal echinomycin or vehicle by i.v. injection on days 9, 11, 13, 25 and 27. Average tumor volume was recorded throughout the experiment. Error bars represent ±SEM. Individual treatments and dosage are denoted by asterisks. (Panel C) Mice were euthanized, and tumors were dissected and photographed. […] Weight is expressed as average weight ±s.d., P value was calculated by t test.
To test the therapeutic efficacy of free echinomycin (in PBS), Lipo-EM, and vehicle in breast cancer cells in vivo, SUM159 cells were xenografted in the mammary fat pad of NOD-SCID mice. […] In addition, Growth kinetics of the transplanted tumors were measured by volume (FIG. 11, panel B) and by weight (FIG. 11, panel C and panel D). […]

Another data set has as its system MCF7 cells. Put plainly: MTT cell viability assay, MCF7. The class given is cell-based, human. Conditions: 48 hrs, compared with SUM159. How it is done:
(§1) FIG. 9. Echinomycin reduced the number of live breast cancer cells in vitro. Breast cancer cells with high (SUM 159) or low (MCF7) levels of HIF-1α were treated with various concentrations of echinomycin in vitro. The correlation between echinomycin concentration and relative proportions of surviving cells after co-culturing with echinomycin is shown. SUM 159 cells with high HIF-1α are more sensitive to echinomycin than MCF7, which express less HIF-1α.
(§2) To better understand the importance of high HIF-1α expression in breast cancer cells, the ability of echinomycin to reduce survival of breast cancer cells was tested in two breast cancer cell lines, MCF7 and SUM 159. More specifically, MCF7 and SUM 159 were treated with different concentrations of echinomycin for 48 hrs, followed by MTT assays to measure cell viability thereafter.
Background: Tetrazolium assays rely on reduction of a dye to a coloured formazan, in cell work by metabolically active cells.

Data set [3] can be described thus: Plasma pharmacokinetics by mass spectrometry after single i.v. injection. The class given is in vivo, mice. Conditions: 0.1 mg/kg single i.v. How it is done:
FIG. 5. Comparison of pharmacokinetics for liposomal vs. free echinomycin. Serum plasma levels of echinomycin detected by MS following single dose i.v. administration of 0.1 mg/kg liposomal echinomycin or free echinomycin
PEG shields liposomes from rapid uptake by the RES and provides steric stabilization to the liposome particles. To measure the prolonged circulation of liposomal echinomycin in the bloodstream compared to free echinomycin, the pharmacokinetics of both formulations were evaluated by detecting echinomycin levels in the plasma by mass spectrometry following single i.v. injections of 0.1 mg/kg of liposomal echinomycin or free echinomycin in mice (FIG. 5).

The test system of a further data set is human ETP-ALL-1 cells. Put plainly: ETP-ALL xenograft model, human CD45+ cells in blood by FACS. The class given is in vivo, NSG mice. Conditions: echinomycin in PBS 0.1 mg/kg x15 doses; Lipo-EM 0.35 mg/kg x10 doses; blood days 34, 50, 65. As to the method: FIG. 8. Liposomal echinomycin eliminates human ETP-ALL cells in a xenograft mouse model. (Panel A) Dosing regimen of liposomal echinomycin treatment for ETP-ALL humanized mice for data in panel B. Day 0 indicates day of transplantation with human ETP-ALL-1 cells. Green arrows represent one individual liposomal echinomycin injection (0.35 mg/kg/injection via i.v.). Red arrows indicate blood tests. (Panel B) NSG mice with 1.3 Gys irradiated were given i.v. injection of 1×10^6 human ETP-ALL-1 cells. Human CD45^+ cells in PBMC of recipients were detected by FACS analysis at day 34 after transplantation. The percentage of human CD45^+ in PBMC of recipient mice before treatment (Day 34) and after treatment (Day 42, 48, 56, and 64) of mice (vehicle and liposomal echinomycin treatment) was analyzed by FACS analysis. […] The percentage of human CD45^+ in PBMC of recipients after echinomycin treatment (Day 34, 50, and 65) of mice was analyzed by FACS analysis.
To test whether administration of liposomal echinomycin (Lipo-EM) could eliminate human ETP-ALL cells in vivo, Lipo-EM was administered to xenografted ETP-ALL NSG mice according to the dosing schedule outlined in FIG. 8, panel A. Briefly, 1×10^6 ETP ALL-1 cells were transplanted via i.v. injection into 1.3 Gys irradiated NSG mice. […] The percentage of human ETP ALL-1 cells was monitored after treatment. […]

The nature of data set [4]: Intravenous tolerability / LD50 in mice. Conditions: mouse, in vivo.
A short description of data set [5]: Liposomal echinomycin toxicity in mice (body weight, survival). Format: in vivo, NSG mice. Conditions: 1 mg/kg single i.v. As to the method: FIG. 4. Comparison of toxicity and efficacy for liposomal vs. free echinomycin. (Panel A) Body weight change in female NSG mice receiving a therapeutic cycle of liposomal echinomycin, PBS echinomycin (20% DMSO in PBS), or equivalent dosage of empty liposomal vehicle. Mice were treated with 250 μg/kg of liposomal (n=7) or free (n=7) echinomycin, or vehicle equivalent (n=4), by i.v. once every other day for a total of 3 doses). (Panel B) Survival of NSG mice administered single i.v. injection of 1 mg/kg liposomal or free echinomycin, or equivalent dosage of empty liposomal vehicle.
To test the toxicity of liposomal echinomycin in mice, a therapeutic cycle of echinomycin was administered at a dose of 250 μg/kg, (liposomal-formulated, non-liposomal-formulated, or equivalent dosage of empty liposomal vehicle) by i.v. injection, every other day for a total of 3 doses. Body weights of the mice were monitored throughout this period.

The next data set relates to SUM159 cells. Put plainly: MTT cell viability assay, SUM 159. The class given is cell-based. Conditions: Homo sapiens, 48 hrs, read-out: IC50 (number of live cells). How it is done:
as §1, §2

The conditions of data set [6]: cited from earlier work.

One may read the LD50 as the dose expected to kill half of the subjects tested. A high value points to a less toxic substance. For orientation: IC50 means the midpoint of a concentration-inhibition curve.

Consider `CS[C@H]1SC[C@H]2C(=O)N(C)[C@@H](C(C)C)C(=O)OC[C@@H](NC(=O)c3cnc4ccccc4n3)C(=O)N[C@@H](C)C(=O)N(C)[C@@H]1C(=O)N(C)[C@@H](C(C)C)C(=O)OC[C@@H](NC(=O)c1cnc3ccccc3n1)C(=O)N[C@@H](C)C(=O)N2C` [free echinomycin, Echinomycin], for which the “time point at which tumor concentration >5 ng/g is achieved (only)” value in [1] was 2 h. For the same compound, the “tumor size vs vehicle control” value in [2] is “no significant differences in tumor size”. The sensitivity to echinomycin entry in the data set on MCF7 cells was “less sensitive”. In addition, the “time point at which plasma concentration >1 ng/ml is achieved (only)” value in [3] is listed as 15 min. Also, in the data set with human ETP-ALL-1 cells, the “growth of ETP-ALL-1 cells in recipients (comparison study)” value is recorded as “did inhibit the growth rate of ETP-ALL-1 cells”. Further, in data set [4], the LD50 was determined as 0.629 mg/kg. The “survival (in words)” value in data set [5] was “died within a week”. Further, the concentration for half-maximal inhibition (IC50) with SUM159 cells was found to be 1 nM. The “solubility in ethanol, alkalis, ketones, acetic acid and chloroform” value in data set [6] is on record as “soluble”. Further, the solubility in water entry in [6] (water) is listed as “insoluble”.
